Experimental data reported in US6716582B2 (priority 2000, dated 2004).

Key:
[1] = tested on: LuxArray 1.04 luxCDABE gene fusions; assay: LuxArray 1.04 limonene stress in liquid culture; assay type: cell-based, E. coli; settings: for upregulation of gene fusion: 80% saturated limonene
Protocol: Microplates from −80° C. containing the LuxArray 1.04 E. coli strains were thawed and used to inoculate 100 μl LB medium supplemented with 100 μg/ml ampicillin in Costar#3595 flat bottomed 96-well microplates. Following overnight growth at 37° C., the plates were visually examined and any wells with little or no turbidity were recorded. Then these cultures were diluted by transfer of 15 μl to 135 μl LB medium in Costar #3595, flat bottom 96-well microplates and were moderately swirl shaken on an IKA Schuttler MTS 4 shaker at setting 400 for two hrs at 37° C. in a humidified box. Twenty μl of each these actively growing cultures were transferred to the corresponding well in sets of three microplates, one containing 80 μl of LB medium, another containing 80 μl of LB medium saturated with limonene at room temperature, and the third containing 40 μl of LB medium saturated with limonene and 40 μl of LB medium. An initial (zero time) reading was taken using an MLX microplate luminometer (Dynex) pre-warmed to 37° C. Then the plates were placed at 37° C. without shaking. Additional bioluminescent measurements were taken at 45, 90, and 135 minutes. To limit the number of microplates handled each day, LuxArray 1.04 microplates 1 to 5, microplates 6 to 10, microplates 11 to 15, and microplates […] were used on each of four different days.
The data were normalized to correct for growth inhibition caused by limonene on the basis of each individual day that data was collected. The bioluminescence (RLU) of each individual culture for each day of experimentation under each of the three conditions, were added to determine the daily array total RLU. These were used to find a daily normalization factor (DNF) as follows:
DNF=Daily total array signal (time zero, LB control)/Daily total array signal (time x, condition y)
Each measurement from the corresponding day, time point, and condition was multiplied by DNF to yield a normalized signal. The data from wells that were scored to have little or no growth were not used in further analysis. The normalized data were analyzed with GeneSpring (Silicon Genetics) software, which averaged the signal from each of the duplicate cultures for each reporter gene fusion.
Thus, patterns of gene expression from the 80% saturated limonene in LB medium were further examined. […] These lists were examined and gene fusions with very low normalized RLU values (<0.012 RLU) at all conditions were eliminated. […] The designation of “>2×” is given for upregulation while “*” is listed if the expression was less than 2 fold increased. At 45 minutes, the expression of fourteen gene fusions was increased; none of these was increased 3 fold or higher. At 90 minutes, 37 gene fusions were induced; these included all but one of the gene fusions observed at 45 minutes. […] These were fusions of the luxCDABE reporter to the promoter regions of uhpT (3.8×), nirB (3.7×) and narK (3.6×). At 135 minutes, 39 gene fusions were induced, which included 13 fusions not observed at 45 or 90 minutes.

[2] = tested on: uhpT-luxCDABE gene fusion (strain DPD3228); assay: verification of uhpT-lux upregulation by limonene; assay type: cell-based, E. coli; settings: late response, maximal at highest concentration, detected at 40% or 20% of saturation
Protocol: E. coli strain DPD3228 is identical to lux-a.pk034.b9 the strain containing the uhpT-luxCDABE gene fusion. This strain was grown overnight at 37° C. in LB medium containing 100 μg/ml ampicillin and diluted the following day into LB medium and grown to log phase at 37° C. 20 μl aliquots of this culture were added to 80 μl of LB medium saturated with limonene, to 80 μl of a series of two fold dilutions into LB medium of LB saturated with limonene, and to 80 μl of LB medium. Light production was measured in a Luminoskan Ascent (Labsystems) microplate luminometer at 37° C. […] Similar to the initial LuxArray observations, a late response to the presence of limonene was observed. This response was maximal at the highest concentration of limonene tested, but was also detected when limonene was present at 40% or 20% of saturating amounts in LB medium.

C=C(C)[C@H]1CC=C(C)CC1 [limonene]
upregulation of gene fusion ([1]; katG-lux, 135 minutes): 4.1 × | upregulation of gene fusion ([1]; narK-lux, 90 minutes): 3.6 × | upregulation of gene fusion ([1]; nirB-lux, 90 minutes): 3.7 × | upregulation of gene fusion ([1]; nirB-lux, 135 minutes): 4.1 × | upregulation of gene fusion ([1]; uhpT-lux, 90 minutes): 3.8 × | upregulation of gene fusion ([1]; uhpT-lux, 135 minutes): 7.7 × | upregulation of gene expression ([1]; whole LuxArray 1.04, 40% saturated limonene in LB medium): little to no upregulation | upregulation of bioluminescence [2]: upregulation of bioluminescence from this strain by limonene was confirmed
